The nature of series [1]: Pharmacokinetic (PK) assay in mice. The format is in vivo. The settings on record: Balb/c male mice, single intragastric administration, 5 mg/kg, plasma; for AUC(0-t) / AUC(0-inf) / half-life / MRT / Cmax: mouse, po; for AUC(0-t): read-out: Area under curve AUC0-t; for AUC(0-inf): read-out: Area under curve AUC0-∞; for half-life: read-out: Half-life t1/2 (converted); for MRT: read-out: Mean residence time MRT; for Cmax: read-out: Plasma concentration Cmax. The protocol: 2. Pharmacokinetic (PK) Assay in Mice
The pharmacokinetic test of the preferred examples of the present invention in mice was carried out in Balb/c male mice (Shanghai Jiesijie Laboratory Animal Co., LTD).
Administration mode: single intragastric administration.
Administration dosage: 5 mg/10 ml/kg.
Formulation: 0.5% CMC-Na, ultrasonic dissolution.
Sampling points: 0.5, 1, 2, 4, 6, 8 and 24 hours after administration.
1) 0.1 mL of blood was taken from the orbit, placed in a K2EDTA tube, and centrifuged for 5˜20 min at room temperature at 1000˜3000×g to separate the plasma, which was then stored at −80° C.
2) 160 μL of acetonitrile was added to 40 μL of plasma sample for precipitation, and then the mixture was centrifuged for 5˜20 minutes at 500˜2000×g.
3) 100 μL, of processed supernatant was taken and analyzed by LC/MS/MS assay to determine the concentration of the test compound.
LC-MS/MS Assay: • Liquid chromatography condition: Shimadzu LC-20AD pump • Mass spectrometry condition: AB Sciex API 4000 mass spectrometer • Chromatographic column: phenomenex Gemiu 5 μm C18 50×4.6 mm • Mobile phase: solution A was 0.1% aqueous formic acid solution, and solution B was acetonitrile • Flow rate: 0.8 mL/min • Elution time: 0-3.5 minutes gradient elution
The main parameters were calculated using WinNonlin 6.1.

The target in a further series is ASK1 kinase (Homo sapiens (Human), UniProt Q99683). Briefly: ASK1 enzymatic test (TR-FRET). The format is biochemical. The note with it: ASK1 kinase activity. The protocol:
In this test, the fluorescence-resonance energy transfer (TR-FRET) method was used to determine the inhibition effect of the test compounds on ASK1 kinase activity, and the half maximal inhibitory concentration IC50 of the compounds on ASK1 kinase activity was obtained.
1) 1˜5 μL of ASK1 enzyme solution was added to a 384-well plate, and the final concentration of the enzyme was 0.220 nM.
2) 1˜5 μL of gradient-diluted compound solution was added.
3) 1˜5 μL of a substrate mixture containing substrate polypeptides (final concentration: 100˜5000 nM) and ATP (final concentration: 100˜1000 uM) were added.
4) The mixture was incubated at room temperature for 0.5 to 5 hours.
5) 10 μL of EDTA and test solution containing labeled antibody were added, and the plate was incubated at room temperature for 2 to 24 hours.
6) The fluorescence signal value of each well was determined by a microplate reader at about 615 nm and 665 nm.
7) The inhibition rate was calculated by the fluorescence signal value.
8) The IC50 of the compound was obtained by curve fitting according to the inhibition rate at different concentrations.
A general note: TR-FRET usually uses a lanthanide donor and a delayed reading to cut background.

This note sets out measurements from patent publication US11136324B2, “Substituted imidazoles as apoptosis signal regulating kinase 1 inhibitors” (Jiangsu Hansoh Pharmaceutical Group Co., Ltd., priority 2017, dated 2021).

Each structure is given as a SMILES string.

Chain of ASK1 kinase (Q99683 whole entry): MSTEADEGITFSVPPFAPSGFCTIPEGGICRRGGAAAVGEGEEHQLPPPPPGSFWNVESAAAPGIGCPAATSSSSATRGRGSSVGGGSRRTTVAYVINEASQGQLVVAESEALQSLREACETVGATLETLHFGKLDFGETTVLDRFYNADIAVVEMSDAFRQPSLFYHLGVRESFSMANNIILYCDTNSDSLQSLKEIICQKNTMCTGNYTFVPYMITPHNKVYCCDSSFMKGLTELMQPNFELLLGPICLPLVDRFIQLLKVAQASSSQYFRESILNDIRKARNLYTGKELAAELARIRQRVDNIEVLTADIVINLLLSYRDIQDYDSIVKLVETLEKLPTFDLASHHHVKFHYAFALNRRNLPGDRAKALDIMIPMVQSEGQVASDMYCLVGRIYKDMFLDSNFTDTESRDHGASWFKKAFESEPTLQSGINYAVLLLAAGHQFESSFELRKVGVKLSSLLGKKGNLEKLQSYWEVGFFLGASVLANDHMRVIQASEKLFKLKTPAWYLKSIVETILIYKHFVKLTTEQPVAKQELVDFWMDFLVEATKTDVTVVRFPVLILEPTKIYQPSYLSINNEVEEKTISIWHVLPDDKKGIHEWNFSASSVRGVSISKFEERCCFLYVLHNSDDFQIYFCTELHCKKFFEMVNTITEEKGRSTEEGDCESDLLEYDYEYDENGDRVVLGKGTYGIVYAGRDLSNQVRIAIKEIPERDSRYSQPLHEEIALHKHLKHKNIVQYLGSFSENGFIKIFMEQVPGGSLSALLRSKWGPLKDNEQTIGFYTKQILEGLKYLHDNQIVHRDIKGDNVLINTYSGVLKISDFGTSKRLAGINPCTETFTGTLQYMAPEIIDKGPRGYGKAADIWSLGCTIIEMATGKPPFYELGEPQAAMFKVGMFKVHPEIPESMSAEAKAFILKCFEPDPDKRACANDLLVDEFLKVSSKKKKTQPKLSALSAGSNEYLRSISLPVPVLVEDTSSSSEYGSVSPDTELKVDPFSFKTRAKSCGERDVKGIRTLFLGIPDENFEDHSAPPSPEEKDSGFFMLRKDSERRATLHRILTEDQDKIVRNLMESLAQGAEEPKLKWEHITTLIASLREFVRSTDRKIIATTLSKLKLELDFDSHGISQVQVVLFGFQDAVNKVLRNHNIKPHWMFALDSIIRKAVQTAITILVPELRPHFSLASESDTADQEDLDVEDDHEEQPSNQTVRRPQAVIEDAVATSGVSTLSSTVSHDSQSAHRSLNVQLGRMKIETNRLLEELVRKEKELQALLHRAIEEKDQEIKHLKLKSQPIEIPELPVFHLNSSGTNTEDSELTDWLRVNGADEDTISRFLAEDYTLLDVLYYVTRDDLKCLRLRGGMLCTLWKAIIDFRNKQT

What is called MRT is a mean duration of stay, worked out from the concentration-time curve. The IC50 is the point on the concentration scale where inhibition reaches its midpoint. Read a high IC50 as weaker potency in that assay. For `Cc1cc(F)c(C(=O)Nc2cccc(-c3nnc4n3CCC4)n2)cc1-n1cnc(C2CC2)c1` [Example 1, 5-(4-cyclopropyl-1H-imidazol-1-yl)-N-(6-(6,7-dihydro-5H-pyrrolo[2,1-c][1,2,4]triazol-3-yl)pyridin-2-yl)-2-fluoro-4-methylbenzamide], in series [1], the Peak time tmax was 0.5 h, the AUC(0-t) was determined as 104000 ng·h/mL, the AUC(0-inf) was 104000 ng·h/mL and the half-life was 2.9 h. In series [1], the MRT is 4.2 h and the Cmax was 18300 ng/mL. Moreover, the IC50 against ASK1 kinase is 6 nM.
At ASK1 kinase, `Cc1cc(F)c(C(=O)Nc2cccc(-c3nnc4n3CCCCC4)n2)cc1-n1cnc(C2CC2)c1` [Example 2, 5-(4-Cyclopropyl-1H-imidazol-1-yl)-2-fluoro-4-methy 1-N-(6-(6,7,8,9-tetrahydro-5H-[1,2,4]triazolo[4,3-a]azepin-3-yl)pyridin-2-yl)benzamide] yielded an IC50 of 9.3 nM.
`Cc1cc(F)c(C(=O)Nc2cccc(-c3nnc4n3CCCC4)n2)cc1-n1cnc(C2CC2)c1` [Example 3, 5-(4-Cyclopropyl-1H-imidazol-1-yl)-2-fluoro-4-methyl-N-(6-(5,6,7,8-tetrahydro-[1,2,4]triazolo[4,3-a]pyridin-3-yl)pyridin-2-yl)benzamide]: inhibition against ASK1 kinase was half-maximal at 13.4 nM (IC50).
In the case of `Cc1cc(F)c(C(=O)Nc2cccc(-c3nnc4n3CCOC4)n2)cc1-n1cnc(C2CC2)c1` [Example 4, 5-(4-Cyclopropyl-1H-imidazol-1-yl)-N-(6-(5,6-dihydro-8H-[1,2,4]triazolo[3,4-c][1,4]oxazin-3-yl)pyridin-2-yl)-2-fluoro-4-methylbenzamide], at ASK1 kinase, half-maximal inhibition (IC50) was put at 47.8 nM.
The same measure, in the same setting: under `O=C(Nc1cccc(-c2nnc3n2CCC3)c1)c1cc(-n2cnc(C3CC3)c2)ccn1` [Example 7, 4-(4-Cyclopropyl-1H-imidazol-1-yl)-N-(3-(6,7-dihydro-5H-pyrrolo[2,1-c][1,2,4]triazol-3-yl)phenyl)picolinamide] stands 19.6 nM.
As for `Cc1cc(F)c(C(=O)Nc2cccc(-c3nnc4n3[C@H](C)CC4)n2)cc1-n1cnc(C2CC2)c1` [Example 8, (R)-5-(4-Cyclopropyl-1H-imidazol-1-yl)-2-fluoro-4-methyl-N-(6-(5-methyl-6,7-dihydro-5H-pyrrolo[2,1-c][1,2,4]triazol-3-yl)pyridin-2-yl)benzamide], in series [1], the Peak time tmax came out at 1 h, the AUC(0-t) came to 29700 ng·h/mL, the AUC(0-inf) came to 29800 ng·h/mL and the half-life was 2.7 h. In series [1], the MRT turned out to be 4.6 h and the Cmax is 4810 ng/mL. Besides, the IC50 against ASK1 kinase was 1.8 nM.
Turning to `Cc1cc(F)c(C(=O)Nc2cccc(-c3nnc4n3[C@@H](C)CC4)n2)cc1-n1cnc(C2CC2)c1` [Example 9, (S)-5-(4-Cyclopropyl-1H-imidazol-1-yl)-2-fluoro-4-methyl-N-(6-(5-methyl-6,7-dihydro-5H-pyrrolo[2,1-c][1,2,4]triazol-3-yl)pyridin-2-yl)benzamide], in series [1], the Peak time tmax stood at 0.5 h, the AUC(0-t) was determined as 38100 ng·h/mL, the AUC(0-inf) is 38400 ng·h/mL and the half-life is 4.4 h. In series [1], the MRT was determined as 5.5 h and the Cmax turned out to be 4370 ng/mL. This molecule registered an IC50 on ASK1 kinase of 5 nM.
In the case of `Cc1cc(F)c(C(=O)Nc2cccc(-c3nnc4n3CC(C3CC3)C4)n2)cc1-n1cnc(C2CC2)c1` (stereo not shown) [Example 30, 5-(4-Cyclopropyl-1H-imidazol-1-yl)-N-(6-(6-cyclopropyl-6,7-dihydro-5H-pyrrolo[2,1-c][1,2,4]triazol-3-yl)pyridin-2-yl)-2-fluoro-4-methylbenzamide], it took 11.4 nM to reach half-maximal inhibition against ASK1 kinase (IC50).
Still for that read-out and setting: under `Cc1cc(F)c(C(=O)Nc2cccc(-c3nnc4n3CC3(CC3)C4)n2)cc1-n1cnc(C2CC2)c1` [Example 31, N-(6-(5′H,7′H-Spiro[cyclopropane-1,6′-pyrrolo[2,1-c][1,2,4]triazol]-3′-yl)pyridin-2-yl)-5-(4-cyclopropyl-1H-imidazol-1-yl)-2-fluoro-4-methylbenzamide] stands 10.9 nM.
Take `Cc1cc(F)c(C(=O)Nc2cccc(-c3nnc4n3C[C@@H](C)C4)n2)cc1-n1cnc(C2CC2)c1` [Example 35, (S)-5-(4-Cyclopropyl-1H-imidazol-1-yl)-2-fluoro-4-methyl-N-(6-(6-methyl-6,7-di hydro-5H-pyrrolo[2,1-c][1,2,4]triazol-3-yl)pyridin-2-yl)benzamide]: in series [1], the Peak time tmax was found to be 1 h, the AUC(0-t) stood at 107000 ng·h/mL, the AUC(0-inf) amounted to 108000 ng·h/mL and the half-life was 3.7 h. Also, in series [1], the MRT was 5 h and the Cmax came to 13500 ng/mL.
In turn, `CO[C@H](C)[C@H]1CCc2nnc(-c3cccc(NC(=O)c4cc(-n5cnc(C6CC6)c5)c(C)cc4F)n3)n21` [Example 36, 5-(4-Cyclopropyl-1H-imidazol-1-yl)-2-fluoro-N-(6-((R)-5-((R)-1-methoxyethyl)-6,7-di hydro-5H-pyrrolo[2,1-c][1,2,4]triazol-3-yl)pyridin-2-yl)-4-methylbenzamide] showed an IC50 on ASK1 kinase of 9.1 nM.
Same read-out and setting: then `C#CC1CCc2nnc(-c3cccc(NC(=O)c4cc(-n5cnc(C6CC6)c5)c(C)cc4F)n3)n21` (stereo not shown) [Example 44, 5-(4-Cyclopropyl-1H-imidazol-1-yl)-N-(6-(5-ethynyl-6,7-dihydro-5H-pyrrolo[2,1-c][1,2,4]triazol-3-yl)pyridin-2-yl)-2-fluoro-4-methylbenzamide], with 3.6 nM; and `Cc1cc(F)c(C(=O)Nc2cccc(-c3nnc4n3[C@H](CC#N)CC4)n2)cc1-n1cnc(C2CC2)c1` [Example 48, (S)—N-(6-(5-(Cyanomethyl)-6,7-dihydro-5H-pyrrolo[2,1-c][1,2,4]triazol-3-yl)pyridin-2-yl)-5-(4-cyclopropyl-1H-imidazol-1-yl)-2-fluoro-4-methylbenzamide], with 6.1 nM.
The molecule `Cc1cc(F)c(C(=O)Nc2cccc(-c3nnc4n3[C@H](CO)CC4)n2)cc1-n1cnc(C2CC2)c1` [Example 50, (S)-5-(4-Cyclopropyl-1H-imidazol-1-yl)-2-fluoro-N-(6-(5-(hydroxymethyl)-6,7-dihydro-5H-pyrrolo[2,1-c][1,2,4]triazol-3-yl)pyridin-2-yl)-4-methylbenzamide] gave an IC50 at ASK1 kinase of 9.6 nM.
On to `Cc1cc(F)c(C(=O)Nc2cccc(-c3nnc4n3[C@@H](CF)CC4)n2)cc1-n1cnc(C2CC2)c1` [Example 52, (R)-5-(4-Cyclopropyl-1H-imidazol-1-yl)-2-fluoro-N-(6-(5-(fluoromethyl)-6,7-dihydro-5H-pyrrolo[2,1-c][1,2,4]triazol-3-yl)pyridin-2-yl)-4-methylbenzamide], for which, in series [1], the Peak time tmax was found to be 0.5 h, the AUC(0-t) was 70500 ng·h/mL, the AUC(0-inf) turned out to be 70600 ng·h/mL and the half-life is 3 h. In addition, in series [1], the MRT worked out at 4.7 h and the Cmax turned out to be 9970 ng/mL.
Take `Cc1cc(Cl)c(C(=O)Nc2cccc(-c3nnc4n3[C@H](C)CC4)n2)cc1-n1cnc(C2CC2)c1` [Example 53, (R)-2-Chloro-5-(4-cyclopropyl-1H-imidazol-1-yl)-4-methyl-N-(6-(5-methyl-6,7-dihydro-5H-pyrrolo[2,1-c][1,2,4]triazol-3-yl)pyridin-2-yl)benzamide]: at ASK1 kinase, the IC50 stood at 8.2 nM.
On to `Cc1cc(F)c(C(=O)Nc2cccc(-c3nnc4n3C3(CC4)CC3)n2)cc1-n1cnc(C(C)C)c1` [Example 62, N-(6-(6′,7′-Dihydrospiro[cyclopropane-1,5′-pyrrolo[2,1-c][1,2,4]triazol]-3′-yl)pyridin-2-yl)-2-fluoro-5-(4-isopropyl-1H-imidazol-1-yl)-4-methylbenzamide], for which, at ASK1 kinase, half-maximal inhibition (IC50) was put at 3 nM.
Same read-out and setting: then `Cc1cc2c(cc1-n1cnc(C3CC3)c1)C(=O)N(c1cccc(-c3nnc4n3CCC4)n1)C2` [Example 63, 6-(4-Cyclopropyl-1H-imidazol-1-yl)-2-(6-(6,7-dihydro-5H-pyrrolo[2,1-c][1,2,4]triazol-3-yl)pyridin-2-yl)-5-methylisoindolin-1-one], with 8.4 nM.
